Like-named read-outs stand apart in the source and are kept apart here.
Test: Food effect cross-over study, 200 mg (25 mg tablets), healthy volunteers: plasma pharmacokinetics
Type: in vivo, human
Details: for concentration at 36 h / concentration at 48 h / concentration at 72 h / AUC(0-inf) / AUC(0-t) / Cmax / Tmax / MRT / half-life: human, plasma; for concentration at 36 h: 36 hours postdose; for concentration at 48 h: 48 hours postdose; for concentration at 72 h: 72 hours postdose
Description: This example describes a clinical study for establishing, in healthy volunteers, the effect of a high fat, high caloric meal on the PK profile of Compound I, as compared to administration of the drug in the fasted state. The study also was intended to determine the safety and tolerability after a single oral dose of Compound I in the fed and fasted state in healthy volunteers. The measurements of PK, PD, and other clinical parameters were done as described in Example 1 above.
This study was an open-label, randomized, two-period cross-over study in healthy volunteers aged 18-55 years. Subjects were screened up to 28 days before the first treatment period. Subjects were admitted to the clinical site on Day −1 (the day before dosing) of Period 1. Approximately half of the subjects randomly received a single dose of Compound I on Day 1 of the first treatment period after the ingestion of a high fat, high caloric breakfast, and the remainder were closed in the fasted state. Any subject with a preclose resting HR≥95 beats per minute (bpm) was considered ineligible and was not treated. Any subjects with an acute gastrointestinal disorder which could impact drug/food absorption (e.g., vomiting, diarrhea) were rescheduled. Subjects were confined to the clinic until Day 4, and discharged after the 72-hour postclose PK and laboratory samples and vital signs were obtained. After a washout between dosing from 7 to 10 days (or, after consultation with the Investigator, up to 21 days after initial dosing if the subject was unable to attend within the 7 to 10-day window), the subject was admitted for Period 2. The sequence of fed/fasted versus fasted/fed periods was randomized. Subjects returned after the second treatment period for a safety follow-up visit on Day 7 (±1 day).
In both treatment periods, Compound I was administered with 240 mL of water. In the fasted state, the subjects fasted for 10 hours before and for 4 hours after the administration of Compound I. Water could have been ingested up to 1 hour before and after 1 hour post dosing. In the fed state, the subjects fasted for 10 hours before and for 4 hours after the ingestion of the meal, but could have ingested water up to 1 hour before and 1 hour after dosing. In the fed state, the subjects started ingesting the high fat, high caloric meal within 30 minutes prior to Compound I administration and finished the meal within 30 minutes. The meal contained approximately 800 to 1000 calories with about 50% of the calories from fat. The meal consisted of approximately 150 calories from protein, 250 calories from carbohydrate, and 500-600 calories from fat. An example of the meal was a breakfast consisting of two eggs fried in butter, two strips of bacon, two slices of buttered toast, 4 ounces of hash brown potatoes, and 8 ounces of whole milk.
Each subject received two oral doses of 200 mg of Compound I formulated as 25 mg tablets (8 tablets) in a randomized, cross-over fashion, once in the fasted state and the other time after the ingestion of a high fat, high caloric breakfast. There was a washout of between 7 and 21 days between the administrations of the two closes. The Compound I drug substance was a crystalline, free-base, synthetic molecule with a molecular weight of 435.4.
Plasma drug concentrations were measured as described in Example 1 above. Blood samples to measure Compound I plasma concentration were collected at various time points, including on Day 1 preclose (1 hour prior to dosing) and at 1 (±5 min), 2 (±5 min), 3 (±5 min), 4 (+10 min), 5 (+10 min), 6 (+10 min), 9 (+20 min), 12 (+20 min), 18 (+30 min), 24 (+30 min), 36 (+30 min), 48 (+30 min), and 72 (+30 min) hours postclose on both treatment periods.
To assess the effect of food on the PK of Compound I, the two one-sided t-test procedure was used to construct 90% CI around the geometric mean ratios (fed/fasted) of plasma AUCinf, AUClast, and Cmax. […]

[1] = oral, Fed, read-out: Plasma concentration, Geometric Mean
[2] = oral, Fed, read-out: Plasma concentration, Mean
[3] = oral, Fed, read-out: Plasma concentration, Median
[4] = oral, Fasted, read-out: Plasma concentration, Geometric Mean
[5] = oral, Fasted, read-out: Plasma concentration, Mean
[6] = oral, Fasted, read-out: Plasma concentration, Median
[7] = subjects who completed both fasted and fed periods (N = 9)
[8] = subjects who completed both periods (N = 9)

## Cn1cc(S(=O)(=O)[C@@](C)(F)C2CCN(C(=O)Nc3ccon3)CC2)c(C(F)F)n1 [Compound I, (R)-4-(1-((3-(difluoromethyl)-1-methyl-1H-pyrazol-4-yl)sulfonyl)-1-fluoroethyl)-N-(isoxazol-3-yl)piperidine-1-carboxamide]
[1]
  concentration at 36 h: 834 ng/mL
  concentration at 48 h: 476 ng/mL
  concentration at 72 h: 129 ng/mL
[2]
  concentration at 36 h: 881 ng/mL
  concentration at 48 h: 526 ng/mL
  concentration at 72 h: 161 ng/mL
[3]
  concentration at 36 h: 905 ng/mL
  concentration at 48 h: 549 ng/mL
  concentration at 72 h: 143 ng/mL
[4]
  concentration at 48 h: 306 ng/mL
  concentration at 72 h: 93.2 ng/mL
[5]
  concentration at 48 h: 331 ng/mL
  concentration at 72 h: 108 ng/mL
[6]
  concentration at 48 h: 346 ng/mL
  concentration at 72 h: 112 ng/mL
oral, N = 11, read-out: AUCinf, Fasted LSGM
  AUC(0-inf): 59400 ng·h/mL
oral, N = 11, read-out: AUCinf, Fed LSGM
  AUC(0-inf): 91600 ng·h/mL
oral, N = 11, read-out: AUClast, Fasted LSGM
  AUC(0-t): 57400 ng·h/mL
oral, N = 11, read-out: AUClast, Fed LSGM
  AUC(0-t): 88400 ng·h/mL
oral, N = 11, read-out: Cmax, Fasted LSGM
  Cmax: 2300 ng/mL
oral, N = 11, read-out: Cmax, Fed LSGM
  Cmax: 3640 ng/mL
oral, fasted state, read-out: Cmax of mean plasma concentrations
  Cmax: 2310 ng/mL
oral, fasted state, read-out: Cmax, Mean (SD)
  Cmax: 2350 ng/mL
oral, fasted state, read-out: Tmax, Median (range)
  Tmax: 5 h
oral, fasted state, read-out: tmax of mean plasma concentrations
  Tmax: 5 h
oral, fed state, read-out: Cmax of mean plasma concentrations
  Cmax: 3200 ng/mL
oral, fed state, read-out: Cmax, Mean (SD)
  Cmax: 3680 ng/mL
oral, fed state, read-out: Tmax, Median (range)
  Tmax: 5.5 h
oral, fed state, read-out: tmax of mean plasma concentrations
  Tmax: 6 h
oral, subjects who completed both fasted and fed periods (N = 9), read-out: AUCinf, Fasted LSGM
  AUC(0-inf): 61100 ng·h/mL
oral, subjects who completed both fasted and fed periods (N = 9), read-out: AUCinf, Fed LSGM
  AUC(0-inf): 93900 ng·h/mL
oral, subjects who completed both fasted and fed periods (N = 9), read-out: AUClast, Fasted LSGM
  AUC(0-t): 59000 ng·h/mL
oral, subjects who completed both fasted and fed periods (N = 9), read-out: AUClast, Fed LSGM
  AUC(0-t): 90500 ng·h/mL
oral, subjects who completed both fasted and fed periods (N = 9), read-out: Cmax, Fasted LSGM
  Cmax: 2370 ng/mL
oral, subjects who completed both fasted and fed periods (N = 9), read-out: Cmax, Fed LSGM
  Cmax: 3700 ng/mL
po, single 200 mg oral dose, Fasted (N = 10), read-out: AUCinf, Geometric Mean
  AUC(0-inf): 61000 ng·h/mL
po, single 200 mg oral dose, Fasted (N = 10), read-out: AUCinf, Mean
  AUC(0-inf): 62600 ng·h/mL
po, single 200 mg oral dose, Fasted (N = 10), read-out: AUCinf, Median
  AUC(0-inf): 66700 ng·h/mL
po, single 200 mg oral dose, Fasted (N = 10), read-out: AUClast, Geometric Mean
  AUC(0-t): 58800 ng·h/mL
po, single 200 mg oral dose, Fasted (N = 10), read-out: AUClast, Mean
  AUC(0-t): 60200 ng·h/mL
po, single 200 mg oral dose, Fasted (N = 10), read-out: AUClast, Median
  AUC(0-t): 64400 ng·h/mL
po, single 200 mg oral dose, Fasted (N = 10), read-out: Cmax, Geometric Mean
  Cmax: 2320 ng/mL
po, single 200 mg oral dose, Fasted (N = 10), read-out: Cmax, Mean
  Cmax: 2350 ng/mL
po, single 200 mg oral dose, Fasted (N = 10), read-out: Cmax, Median
  Cmax: 2400 ng/mL
po, single 200 mg oral dose, Fasted (N = 10), read-out: MRT, Geometric Mean
  MRT: 22.3 h
po, single 200 mg oral dose, Fasted (N = 10), read-out: MRT, Mean
  MRT: 22.6 h
po, single 200 mg oral dose, Fasted (N = 10), read-out: MRT, Median
  MRT: 23.9 h
po, single 200 mg oral dose, Fasted (N = 10), read-out: T1/2, z, Geometric Mean (converted)
  half-life: 14.1 h
po, single 200 mg oral dose, Fasted (N = 10), read-out: T1/2, z, Mean (converted)
  half-life: 14.3 h
po, single 200 mg oral dose, Fasted (N = 10), read-out: T1/2, z, Median (converted)
  half-life: 14.9 h
po, single 200 mg oral dose, Fasted (N = 10), read-out: Tmax, Geometric Mean
  Tmax: 4.58 h
po, single 200 mg oral dose, Fasted (N = 10), read-out: Tmax, Mean
  Tmax: 4.7 h
po, single 200 mg oral dose, Fasted (N = 10), read-out: Tmax, Median
  Tmax: 5 h
po, single 200 mg oral dose, Fed (N = 10), read-out: AUCinf, Geometric Mean
  AUC(0-inf): 91600 ng·h/mL
po, single 200 mg oral dose, Fed (N = 10), read-out: AUCinf, Mean
  AUC(0-inf): 93500 ng·h/mL
po, single 200 mg oral dose, Fed (N = 10), read-out: AUCinf, Median
  AUC(0-inf): 94000 ng·h/mL
po, single 200 mg oral dose, Fed (N = 10), read-out: AUClast, Geometric Mean
  AUC(0-t): 88400 ng·h/mL
po, single 200 mg oral dose, Fed (N = 10), read-out: AUClast, Mean
  AUC(0-t): 89900 ng·h/mL
po, single 200 mg oral dose, Fed (N = 10), read-out: AUClast, Median
  AUC(0-t): 89300 ng·h/mL
po, single 200 mg oral dose, Fed (N = 10), read-out: Cmax, Geometric Mean
  Cmax: 3640 ng/mL
po, single 200 mg oral dose, Fed (N = 10), read-out: Cmax, Mean
  Cmax: 3680 ng/mL
po, single 200 mg oral dose, Fed (N = 10), read-out: Cmax, Median
  Cmax: 3770 ng/mL
po, single 200 mg oral dose, Fed (N = 10), read-out: MRT, Geometric Mean
  MRT: 22.6 h
po, single 200 mg oral dose, Fed (N = 10), read-out: MRT, Mean
  MRT: 23.1 h
po, single 200 mg oral dose, Fed (N = 10), read-out: MRT, Median
  MRT: 23.6 h
po, single 200 mg oral dose, Fed (N = 10), read-out: T1/2, z, Geometric Mean (converted)
  half-life: 13.6 h
po, single 200 mg oral dose, Fed (N = 10), read-out: T1/2, z, Mean (converted)
  half-life: 13.8 h
po, single 200 mg oral dose, Fed (N = 10), read-out: T1/2, z, Median (converted)
  half-life: 13.5 h
po, single 200 mg oral dose, Fed (N = 10), read-out: Tmax, Geometric Mean
  Tmax: 6.02 h
po, single 200 mg oral dose, Fed (N = 10), read-out: Tmax, Mean
  Tmax: 6.9 h
po, single 200 mg oral dose, Fed (N = 10), read-out: Tmax, Median
  Tmax: 5.5 h
[7]
  AUCinf, Geometric Mean Ratio - Fed/Fasted (% of Reference): 153.63%
  AUClast, Geometric Mean Ratio - Fed/Fasted (% of Reference): 153.20%
  Cmax, Geometric Mean Ratio - Fed/Fasted (% of Reference): 156.43%
[8]
  Cmax, geometric mean ratio (fed/fasted): 156.43%
  increases for AUCinf, AUC0-t and Cmax in the fed state: approximately 50%
